Results: ChEMBL document CHEMBL1135940, “2-Amino-4-[3'-hydroxyphenyl]-4-hydroxybutanoic acid; a potent inhibitor of rat and recombinant human kynureninase” (Bioorg Med Chem Lett, 2002)

Assays:
[1] = target: T1, Kynureninase (Homo sapiens, UniProt Q16719); assay: Tested for binding affinity against kynureninase enzyme from human
T1 sequence (Q16719 whole entry): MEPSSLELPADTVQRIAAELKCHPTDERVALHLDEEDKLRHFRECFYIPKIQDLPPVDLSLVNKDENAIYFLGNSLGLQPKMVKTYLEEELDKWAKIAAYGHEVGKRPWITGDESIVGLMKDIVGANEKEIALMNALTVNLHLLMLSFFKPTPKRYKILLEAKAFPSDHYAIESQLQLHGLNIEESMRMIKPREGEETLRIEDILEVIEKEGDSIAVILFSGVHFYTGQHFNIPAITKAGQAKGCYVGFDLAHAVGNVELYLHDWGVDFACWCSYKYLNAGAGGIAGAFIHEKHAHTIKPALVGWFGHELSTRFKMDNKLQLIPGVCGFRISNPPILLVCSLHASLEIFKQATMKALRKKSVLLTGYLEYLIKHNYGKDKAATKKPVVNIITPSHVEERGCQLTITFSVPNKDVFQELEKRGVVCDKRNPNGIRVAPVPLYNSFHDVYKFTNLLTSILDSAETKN

[2] = target: T2, Kynureninase (Rattus norvegicus, UniProt P70712); assay: Tested for binding affinity against kynureninase enzyme from rat
T2 sequence (P70712 whole entry): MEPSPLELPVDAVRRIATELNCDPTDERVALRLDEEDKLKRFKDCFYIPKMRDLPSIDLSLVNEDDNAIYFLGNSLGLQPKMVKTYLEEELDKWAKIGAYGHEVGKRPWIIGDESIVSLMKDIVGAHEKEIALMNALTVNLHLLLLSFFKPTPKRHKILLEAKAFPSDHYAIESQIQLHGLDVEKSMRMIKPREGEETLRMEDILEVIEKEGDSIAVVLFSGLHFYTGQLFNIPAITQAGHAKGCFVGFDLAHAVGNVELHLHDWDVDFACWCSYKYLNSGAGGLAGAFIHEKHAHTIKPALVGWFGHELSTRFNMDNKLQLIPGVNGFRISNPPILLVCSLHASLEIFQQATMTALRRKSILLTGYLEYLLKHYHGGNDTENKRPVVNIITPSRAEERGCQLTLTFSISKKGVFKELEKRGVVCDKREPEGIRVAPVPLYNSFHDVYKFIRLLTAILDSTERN

- Ki [1]: 100 nM
- Ki [2]: 130 nM
Compound: NC(CC(O)c1cccc(O)c1)C(=O)O (configuration not stated)
